ChEMBL document CHEMBL1142235, “Pharmacokinetics and safety of indinavir in human immunodeficiency virus-infected pregnant women” (Antimicrob Agents Chemother, 2007)

Experiments:
[1] = Tmax in HIV1 infected pregnant woman during postpartum period at 800 mg three times/day; assay type: ADME, organism-based; conditions: female, human, in vivo
[2] = organism: Homo sapiens; assay: AUC (0-8 hrs) in HIV1 infected pregnant woman during antepartum period at 800 mg three times/day; assay type: ADME, organism-based, Plasma; parameters: dose 800 mg, time < 8 hr; conditions: in vivo
[3] = AUC (0-8 hrs) in HIV1 infected pregnant woman during postpartum period at 800 mg three times/day; assay type: ADME, organism-based; parameters: dose 800 mg, time < 8 hr; conditions: female, human, plasma
[4] = organism: Homo sapiens; assay: Oral clearance in HIV1 infected pregnant woman during antepartum period at 800 mg three times/day; assay type: ADME, organism-based; conditions: in vivo
[5] = Oral clearance in HIV1 infected pregnant woman during postpartum period at 800 mg three times/day; assay type: ADME, organism-based; conditions: female, human, in vivo
[6] = Cmax in HIV1 infected pregnant woman during antepartum period at 800 mg three times/day; assay type: ADME, organism-based; parameters: dose 800 mg; conditions: female, human, in vivo
[7] = Cmax in HIV1 infected pregnant woman during postpartum period at 800 mg three times/day; assay type: ADME, organism-based; parameters: dose 800 mg; conditions: female, human, in vivo
[8] = Tmax in HIV1 infected pregnant woman during antepartum period at 800 mg three times/day; assay type: ADME, organism-based; conditions: female, human, in vivo

`CC(C)(C)NC(=O)[C@@H]1CN(Cc2cccnc2)CCN1C[C@@H](O)C[C@@H](Cc1ccccc1)C(=O)N[C@H]1c2ccccc2C[C@H]1O.O` [INDINAVIR] gave a Tmax [1] of 1.88 h, an AUC [2] of 459 µg·min/mL and an AUC at 8 h [3] of 23800 ng·h/mL. The CL/F [4] was 3558 mL/min, the CL/F [5] was 697 mL/min and the Cmax [6] was 4370 ng/mL. For the same compound, the Cmax [7] was 9270 ng/mL and the Tmax [8] was 1.85 h.
